Where “and” joins values, the source holds several entries; their conditions need not be identical. Identical values can stand only once.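 Protocol summary: plate cells (96-well), add compound at 5 concentrations, incubate 48 h, interpolate endpoints linearly. Abbreviation: GI50, concentration required for 50% inhibition of growth. TGI is the concentration that stops growth completely.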
Assays:
Experiment in all cases: inhibition of tumour cell growth, NCI panel, 48 h
SF-539 CNS = test system: SF-539 CNS
OVCAR-8 ovarian = test system: OVCAR-8 ovarian
HT29 colon = test system: HT29 colon
SW-620 colon = test system: SW-620 colon
HCT-15 colon = test system: HCT-15 colon
SN12C renal = test system: SN12C renal
IGROV1 ovarian = test system: IGROV1 ovarian
LOX IMVI melanoma = test system: LOX IMVI melanoma
COLO 205 colon = test system: COLO 205 colon
HCT-116 colon = test system: HCT-116 colon

Structure (SMILES) | GI50 (SF-539 CNS) | TGI (SF-539 CNS) | GI50 (OVCAR-8 ovarian) | TGI (OVCAR-8 ovarian) | GI50 (HT29 colon) | TGI (HT29 colon) | GI50 (SW-620 colon) | TGI (SW-620 colon) | GI50 (HCT-15 colon) | TGI (HCT-15 colon) | GI50 (SN12C renal) | TGI (SN12C renal) | GI50 (IGROV1 ovarian) | TGI (IGROV1 ovarian) | GI50 (LOX IMVI melanoma) | TGI (LOX IMVI melanoma) | GI50 (COLO 205 colon) | TGI (COLO 205 colon) | GI50 (HCT-116 colon) | TGI (HCT-116 colon)
Cc1ncc(C(=O)Nc2ccc(CN3CCN(C)CC3)c(C(F)(F)F)c2)cc1C#Cc1cnc(NC2CC2)c2ncccc12 | 0.612 µM | 1.11 µM | 0.708 µM | 1.54 µM | 0.474 µM | 1.31 µM | 0.714 µM | 1.33 µM | 0.566 µM | 1.1 µM | 1.67 µM | 3.32 µM | 0.709 µM | 1.51 µM | 0.59 µM | 1.11 µM | 1.36 µM | 4.51 µM | 0.578 µM | 1.07 µM
CCN(CC)CCNC(=O)c1c(C)[nH]c(/C=C2\C(=O)Nc3ccc(F)cc32)c1C | 1.38 µM and 2.36 µM and 1.21 µM | 6.7 µM and 5.41 µM and 2.72 µM | 9.05 µM and 2.81 µM and 6.09 µM | > 10 µM and 6.95 µM and 23.1 µM | 1.07 µM and 1.3 µM and 1.54 µM | 5.21 µM and 4.99 µM and 3.69 µM | 1.76 µM and 1.95 µM and 1.4 µM | 7.67 µM and 5.22 µM and 4.22 µM | 1.22 µM and 1.23 µM and 1.13 µM | > 10 µM and 20 µM and 13.3 µM | 1.95 µM and 1.24 µM and 2.23 µM | > 10 µM and 20 µM and 16.2 µM | 1.48 µM and 2.63 µM and 2.05 µM | > 10 µM and 20 µM and 15.9 µM | 1.29 µM and 2.29 µM and 1.32 µM | 2.92 µM and 5.01 µM and 3 µM | 3.57 µM and 2.98 µM and 3.39 µM | > 10 µM and 5.84 µM and 8.8 µM | 1.32 µM and 1.38 µM and 1.16 µM | 5.25 µM and 3.85 µM and 3.09 µM
O=S1(=O)NCCCN1CCNc1nccc(-c2c(-c3cccc(O)c3)nc3sccn23)n1 | 33.5 µM | > 100 µM | 2.86 µM | > 100 µM | 7.65 µM | > 100 µM | 33 µM | > 100 µM | 43.6 µM | > 100 µM | 10.2 µM | > 100 µM | 11.3 µM | 64.4 µM | 2.46 µM | 24 µM | 0.581 µM | 27.4 µM | 5.26 µM | 38.4 µM
C=C1CC2(OC1=O)C(=O)N(CCCN1C(=O)C3(CC(=C)C(=O)O3)c3ccccc31)c1ccccc12 (centres undefined) | 1.76 µM | 3.43 µM | 1.35 µM | 5.49 µM | 1.85 µM | 4.91 µM | 0.594 µM | 2.08 µM | 0.956 µM | 2.55 µM | 2.29 µM | 6.26 µM | 1.32 µM | 2.68 µM | 0.805 µM | 2.1 µM | 0.52 µM | 2.03 µM | 1.84 µM | 3.75 µM
CCCCCCCCCCCC[n+]1ccccc1 (tested in a mixture with another compound) | 1.43 µM | 3.44 µM | 0.777 µM | 11.3 µM | 0.28 µM | 4.21 µM | 1.57 µM | 10.5 µM | 3.8 µM | 19.3 µM | 1.19 µM | 3.43 µM | 0.519 µM | 2.28 µM | 0.691 µM | 2.41 µM | 0.404 µM | 1.52 µM | 0.548 µM | 2.62 µM
C=CCSc1nc2ccccc2c(=O)n1Cc1ccco1 |  | > 100 µM |  | > 100 µM |  | > 100 µM |  | > 100 µM |  | > 100 µM |  | > 100 µM |  | > 100 µM |  | > 100 µM |  | > 100 µM |  | > 100 µM
CCCCCCCCCCN=C(c1ccc(N(C)C)cc1)c1ccc(N(C)C)cc1 | 0.832 µM | 5.47 µM | 2.09 µM | > 59.5 µM | 0.351 µM | 18.5 µM | 0.425 µM | > 100 µM | 0.365 µM | > 100 µM | 0.83 µM | 53.4 µM | 0.917 µM | > 100 µM | 0.601 µM | > 96.1 µM | 0.933 µM | 15.7 µM | 0.423 µM | 32.9 µM
CC1CCCc2c1nn(C(=O)/C=C(\N)c1ccccc1)c2N (centres undefined) | 17.7 µM | > 100 µM | 8.5 µM | > 100 µM | 16.8 µM | > 100 µM | 6.71 µM | > 100 µM | 5.85 µM | > 100 µM | 8.13 µM | > 100 µM | 12.5 µM | > 100 µM | 6.29 µM | > 100 µM | 10.1 µM | 79.1 µM | 5.55 µM | 26.3 µM
CCC(=C(c1ccc(OCCCN(C)C)cc1)c1ccc(OCCCN(C)C)cc1)c1ccc(Cl)cc1 | 0.301 µM | 0.604 µM | 0.933 µM | 3.37 µM | 0.395 µM | 0.966 µM | 0.314 µM | 0.648 µM | 0.365 µM | 0.864 µM | 2.18 µM | 4.55 µM | 0.429 µM | 1.15 µM | 0.287 µM | 0.541 µM | 0.399 µM | 1.04 µM | 0.447 µM | 1.15 µM
CN(C)Cc1c[nH]c2c(NCCN)c3c(c(NCCN)c12)C(=O)c1ccccc1C3=O | 2.83 µM | 7.47 µM | 0.726 µM | 11 µM | 3.65 µM | 26.5 µM | 2.35 µM | 7.87 µM | 6.97 µM | 20 µM | 0.372 µM | 1.88 µM | 2.1 µM | 10.5 µM | 0.556 µM | 1.88 µM | 7.36 µM |  | 0.625 µM | 5.29 µM
Cn1c2ccccc2c2c(=O)c3ccccc3[nH]c21 | 34 µM | > 100 µM | > 100 µM | > 100 µM | 54 µM | > 100 µM | 40.7 µM | > 100 µM | 40.1 µM | > 100 µM | 38.5 µM | > 100 µM | 64.3 µM | > 100 µM | 44.2 µM | > 100 µM | 55.8 µM | > 100 µM | 17.6 µM | 52.9 µM
COc1ccccc1/C=C/C(=O)/C=C/c1ccccc1O | 1.46 µM | 2.78 µM | 1.26 µM | 10.4 µM | 0.853 µM | 2.75 µM | 0.392 µM | 1.47 µM | 0.351 µM | 1.64 µM | 1.66 µM | 5.65 µM | 0.344 µM | 1.92 µM | 0.724 µM | 2.01 µM | 1.11 µM | 2.49 µM | 0.174 µM | 0.379 µM
CNC(=O)c1cc2c(Oc3ccc(NC(=O)C4(C(=O)Nc5ccc(F)cc5)CC4)cc3)ccnc2cc1OC | 0.463 µM | 6.56 µM | 3.77 µM | > 100 µM | 2.42 µM | > 100 µM | 2.64 µM | > 100 µM | 2.77 µM | > 100 µM | 1.1 µM | > 100 µM | 2.32 µM | 8.96 µM | 2.57 µM | 8.93 µM | 2.23 µM | 9.13 µM | 3.23 µM | 14.2 µM
CCN(CC)CCNC(=O)c1cn2ncnc(Oc3ccc(NC(=O)Nc4ccc(Cl)c(C(F)(F)F)c4)c(F)c3)c2c1C | 1.12 µM | 2.43 µM | 1.95 µM | 3.96 µM | 0.834 µM | 2.45 µM | 1.91 µM | 3.5 µM | 1.46 µM | 2.89 µM | 1.69 µM | 3.4 µM | 1.85 µM | 3.5 µM | 1.3 µM | 2.62 µM | 1.44 µM | 3.16 µM | 1.48 µM | 3.18 µM
NC(=O)/C=C/C(=O)O |  | > 5000 µM |  | > 5000 µM |  | > 5000 µM |  | > 5000 µM |  | > 5000 µM |  | > 5000 µM |  | > 5000 µM |  | > 5000 µM |  | > 5000 µM |  | > 5000 µM
CC(=O)[O-].CC(=O)[O-].CC(=O)[O-].CC(=O)[O-].[Mo+2].[Mo+2] | > 100 µM | > 100 µM | > 100 µM | > 100 µM | > 100 µM | > 100 µM | > 100 µM | > 100 µM | > 100 µM | > 100 µM | > 100 µM | > 100 µM | > 100 µM | > 100 µM | > 100 µM | > 100 µM | > 100 µM | > 100 µM | > 100 µM | > 100 µM
CCCCCCCCCCCCCC(=O)OCC1OC(=O)CC1O (centres undefined) |  | > 100 µM |  | > 100 µM |  | > 100 µM |  | > 100 µM |  | 74.5 µM |  | > 100 µM |  | > 100 µM |  | > 100 µM |  | > 100 µM |  | > 100 µM
CCSc1nc(N)c2cn[nH]c2n1 | 43.6 µM | > 100 µM | 48.7 µM | > 100 µM | 29.4 µM | 81.9 µM | 31.7 µM | > 100 µM | 41.7 µM | > 100 µM | 28.7 µM | 70.9 µM | 35.9 µM | > 100 µM | 30.9 µM | > 100 µM | 23.5 µM | 53.9 µM | 30.5 µM | > 100 µM
COc1c(Br)cc(Br)c(OC)c1-c1[nH]c(Br)c(Br)c1Br |  | 21.8 µM |  | 25 µM |  | 18.3 µM |  | 21.7 µM |  | 20.1 µM |  | 21.6 µM |  | 20.6 µM |  | 31.6 µM |  | 28 µM |  | 12.3 µM
Cc1nc(Nc2n[nH]c3c2CN(C(=O)N[C@H](CN(C)C)c2ccccc2)C3(C)C)c2sccc2n1 | 0.382 µM and 0.149 µM | 3.68 µM and 2.98 µM | 0.0839 µM and 0.306 µM | > 10 µM and 15.6 µM | 0.0238 µM and 0.0313 µM | 2.75 µM and 5.59 µM | 0.0244 µM and 0.0346 µM | > 38.7 µM | 0.687 µM and 1.26 µM | > 10 µM and 68.5 µM | 0.0193 µM and < 0.0176 µM | > 4.66 µM and 3.84 µM | 0.0127 µM and 0.0247 µM | > 3.53 µM and 16.7 µM | 0.0087 µM and < 0.0119 µM | 1.38 µM and 2.16 µM | 0.00866 µM and < 0.0109 µM | 0.241 µM and 0.279 µM | 0.00577 µM and < 0.01 µM | > 5.74 µM and 10.3 µM
Cc1nnc(N/N=C(/C(=O)C(C#N)c2ccccc2)C(C#N)c2ccccc2)n1N (centres undefined) |  | > 65.2 µM |  | 15.2 µM |  | > 65.7 µM |  | 8.19 µM |  | > 53 µM |  | 16.6 µM |  | > 95.9 µM |  | 5.65 µM |  | 14 µM |  | > 55.7 µM
